Measurements from BindingDB's records for doi:10.7270/Q2HT2MQ5 (Nmmlsc, 2009).
pKi: −log10 of the molar value.

Biological target: Cell division control protein 42 homolog (Homo sapiens, UniProt P60953)
Experiment: blockade of fluorescent GTP uptake by Cdc42 wt – biochemical, bead-based multiplex flow cytometry, oxadiazole series, SAR follow-up (AID 2037)
Conditions: inactive by the depositor's call

Sequence of Cell division control protein 42 homolog (P60953 whole entry): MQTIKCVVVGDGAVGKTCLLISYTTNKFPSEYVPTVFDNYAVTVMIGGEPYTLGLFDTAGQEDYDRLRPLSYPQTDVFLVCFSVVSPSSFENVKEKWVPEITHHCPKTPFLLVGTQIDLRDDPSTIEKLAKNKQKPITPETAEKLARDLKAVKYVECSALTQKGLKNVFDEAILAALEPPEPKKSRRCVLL

`COc1ccc(-c2noc(CCC(=O)N3CCN(c4ccc(OC)cc4)CC3)n2)cc1` [3-[3-(4-methoxyphenyl)-1,2,4-oxadiazol-5-yl]-1-[4-(4-methoxyphenyl)piperazin-1-yl]propan-1-one] gave a pKi of 7.00.
